The test system of data set [1] is uncultured Ruegeria sp. As to the kind of experiment: Antibacterial activity against Ruegeria sp. by disc diffusion assay. It counts as functional. On the technique in general: A growth-free zone around the sample is the usual read-out of agar diffusion tests.
For data set [2], the system named is Amphibalanus amphitrite. The experiment in a line: Antifouling activity against Balanus amphitrite by settlement inhibition assay. It is filed as functional, organism-based.
For data set [3], the system named is Laribacter hongkongensis. As to the kind of experiment: Antibacterial activity against Laribacter hongkongensis by disc diffusion assay. It counts as functional.
The nature of data set [4]: Antifouling activity against Bugula neritina by settlement inhibition assay. It is filed as functional.
For data set [5], the system named is SMMC-7721. As to the kind of experiment: Cytotoxicity against human SMMC7721 cells up to 50 uM by SRB assay. It counts as cell-based. In general terms: The SRB assay estimates cell density from bound dye.
Data set [6] deals with Micrococcus luteus. The experiment in a line: Antibacterial activity against Micrococcus luteus by disc diffusion assay. It counts as functional, organism-based.
Data set [7] has as its system A549. As to the kind of experiment: Cytotoxicity against human A549 cells up to 50 uM by SRB assay. It is filed as cell-based.
For data set [8], the system named is HeLa. As to the kind of experiment: Cytotoxicity against human HeLa cells up to 50 uM by SRB assay. It is filed as cell-based.
Data set [9] concerns HepG2. The experiment in a line: Lipid lowering activity in human HepG2 cells assessed as decrease in oleic acid elicited lipid accumulation after 6 hrs by oil-red O staining method. It counts as functional, cell-based. To be noted: HepG2, 6 h.

Among the data in ChEMBL document CHEMBL3603796, “Lipid-lowering polyketides from a soft coral-derived fungus Cladosporium sp. TZP29” (Bioorg Med Chem Lett, 2015) are Activity and IC50 values, retold here.

Calls of active or inactive are those of the source. The calls are words filed in the database; no cut-off is given here.

A word on the IC50: it is the concentration at which inhibition is half-maximal.

With `C[C@@H](O)CCCCC[C@H](O)[C@@H]1C=CC(=O)O1`, the outcome in data set [1], in data set [2], in data set [3], in data set [4] and in data set [6] was inactive. Moreover, the Activity result in [5], in data set [7] and in [8] was “Non-toxic” throughout.

In the case of `C[C@@H](O)CCCCCC[C@H]1OC(=O)C[C@@H]1O`, the Activity result in [5], in data set [7] and in data set [8] was “Non-toxic” throughout.

Consider `CC[C@H](C)C(=O)O[C@H]1C[C@@H](C)C=C2C=C[C@H](C)[C@H](CC[C@@H]3C[C@@H](O)CC(=O)O3)[C@H]21` [LOVASTATIN], for which the 50% inhibitory concentration (IC50) in [9] came out at 8.3 µM.
